Results on 32 molecules are retold here after US8618066B1 (priority 2003, dated 2013).

In experiment [1] the test system is Fusarium oxysporum f. sp. lycopersici.
Experiment [2] deals with Bacillus atrophaeus (B. atrophaeus). Type of experiment: cell-based.
The test system of experiment [3] is Gram+ & Gram− bacteria, fungi, virus, mammalian/cancer cells. Conditions: cited from earlier work.
For experiment [4], the system named is Fusarium oxysporum f. sp. lycopersici (F. oxysporum). It is filed as cell-based.
Setting [5] is: classes of organisms/cells the peptide is active against.

“Also recorded” adds a separate entry of the source. Like-named read-outs stand apart in the source and are kept apart here. No end group written: not given here.

On to “FRLKFHI [antimicrobial peptidic agent-7]”, for which the “growth at the lowest peptide concentration tested” value in experiment [1] is listed as “clear retardation of growth”. Further, the “inhibition at the lowest peptide concentration tested” value in experiment [1] (48 h, 0.78 mg/ml) is recorded as “less than 10%”.

Regarding “FRLKFHI [ProteCoat, amino acid polymer consisting essentially of 7 amino acids]”, the “% Growth Inhibition, ProteCoat alone” value in experiment [2] stood at 0%; in experiment [4], 44%. Moreover, the Activity entry in experiment [3] is given as “Fungi”.

Take “SEQ ID No. 185: synthetic antifungal peptide, Table 1 (MSPSTKNIPAPVAGARAGPIHYCVIM; listed as Magnaporthe grisea)”: the Activity result in experiment [3] is listed as “Fungi”.

Regarding “Ponericin G!: peptide, source Ponerine ant (GWKDWAKKAGGWLKKKGPGMAKAALKAAMQ; Ponericin G1; listed as Pachycondyla goeldii)”, the Activity result in experiment [3] (setting [5]) is “Gram+ & Gram−, Fungi”.

Turning to FRLHF [SEQ ID No. 199], the Activity result in experiment [3] was “Gram+ & Gram−, Fungi”.

In the case of “AMP2 (MJ-AMP2): peptide, source Garden four-o'clock (CIGNGGRCNENVGPPYCCSGFCLRQPNQGYGVCRNR; antimicrobial peptidic agent2 (MJ-antimicrobial peptidic agent2); listed as Mirabilis jalapa)”, the Activity entry in experiment [3] was “Gram+, Fungi”.

In the case of “SEQ ID No. 38: synthetic antifungal peptide, Table 1 (YFKLRF)”, the Activity result in experiment [3] was “Fungi”.

On to “Penaeidin-4a: peptide, source Penoeid shrimp (HSSGYTRPLPKPSRPIFIRPIGCDVCYGIPSSTARLCCFRYGDCCHR; Penaeidin-4a; listed as Penaeus vannamei)”, for which the Activity entry in experiment [3] was “Gram+ & Gram−, Fungi”.

Turning to “Thanatin: peptide, source Podisus maculiventris (GSKKPVPIIYCNRRTGKCQRM; listed as Podisus maculiventris)”, the Activity result in experiment [3] is “Gram+ & Gram−, Fungi”.

With “SEQ ID No. 181: synthetic antifungal peptide, Table 1 (YNLEPQGPKLQLWHW)”, the Activity result in experiment [3] is “Fungi”.

Regarding “SEQ ID No. 47: synthetic antifungal peptide, Table 1 (WFKLRF)”, in experiment [3], the Activity result is recorded as “Fungi”.

Turning to “Protegrin 2: peptide, source Pig (RGGRLCYCRRRFCICV; Protegrin 2; listed as Sus scrofa)”, the Activity result in experiment [3] was “Gram+ & Gram−, Virus, Fungi”.

Consider “BMAP-28: peptide, source Bovine (GGLRSLGRKILRAWKKYGPIIVPIIRIG; BMAP-28; listed as Bos taurus)”, for which the Activity result in experiment [3] is on record as “Gram+ & Gram−, Fungi”.

In the case of “ADENOREGULIN: peptide, source Two coloured leaf frong (GLWSKIKEVGKEAAKAAAKAAGKAALGAVSEAV; Phyllomedusa bicolor; Adenoregulin)”, the Activity result in experiment [3] (setting [5]) is “Gram+ & Gram−, Fungi”.

Regarding “Seminalplasmin: peptide, source Bovine (SDEKASPDKHHRFSLSRYAKLANRLANPKLLETFLSKWIGDRGNRSVK; Seminalplasmin; listed as Bos taurus)”, the Activity result in experiment [3] was “Gram+ & Gram−, Fungi,; also recorded: Mammalian cells”.

In the case of “Histone H2B-1 (HLP-1) (Fragment): source Rainbow trout (PDPAKTAPKKGSKKAVTKA; Oncorhynchus mykiss; Histone H2B-1(HLP-1)(Fragment))”, in experiment [3], the Activity result is “Gram+ & Gram−, Fungi”.

For the molecule “Parabutoporin: peptide, source Scorpion (FKLGSFLKKAWKSKLAKKLRAKGKEMLKDYAKGLLEGGSEEVPGQ; Parabutoporin; listed as Parabuthus schlechteri)”, the Activity entry in experiment [3] (setting [5]) is “Gram+ & Gram−, Fungi,; also recorded: Mammalian cells”.

With “Penaeidin-1: peptide, source Penoeid shrimp (YRGGYTGPIPRPPPIGRPPLRLVVCACYRLSVSDARNCCIKFGSCCHLVK; Penaeidin-1; listed as Penaeus vannamei)”, in experiment [3], the Activity result is on record as “Gram+ & Gram−, Fungi”.

“SEQ ID No. 29: synthetic antifungal peptide, Table 1 (FLRF)”: the Activity result in experiment [3] is “Fungi”.

For “Histatin 8: antimicrobial peptide, Table 1 (KFHEKHHSHRGY; Histatin 8)”, the Activity result in experiment [3] was “Gram+ & Gram−, Fungi”.

“Nigrocin 2: peptide, source Rana nigromaculata (GLLSKVLGVGKKVLCGVSGLC; Nigrocin 2; listed as Rana nigromaculata)”: the Activity result in experiment [3] is listed as “Gram+ & Gram−, Fungi”.

Take “Nigrocin 1: peptide, source Rana nigromaculata (GLLDSIKGMAISAGKGALQNLLKVASCKLDKTC; Nigrocin 1; listed as Rana nigromaculata)”: the Activity result in experiment [3] is listed as “Gram+ & Gram−, Fungi”.

Consider “SEQ ID No. 176: synthetic antifungal peptide, Table 1 (CYRFTW)”, for which the Activity entry in experiment [3] was “Fungi”.

In the case of “Alpha-basrubrin (Fragment): source Malabar spinach (GADFQECMKEHSQKQHQHQG; Alpha-basrubrin (Fragment); listed as Basella alba)”, in experiment [3], the Activity result is listed as “Virus, Fungi”.

On to “Tritrpticin: peptide, source Synthetic (VRRFPWWWPFLRR; Synthetic Tritrpticin)”, for which the Activity entry in experiment [3] is on record as “Gram+ & Gram−, Fungi”.

Regarding “SEQ ID No. 33: synthetic antifungal peptide, Table 1 (VFKLRF)”, in experiment [3], the Activity result was “Fungi”.

Turning to “Dhvar4: peptide, source Synthesis (KRLFKKLLFSLRKY; Synthesis dhvar4)”, the Activity result in experiment [3] (setting [5]) is recorded as “Gram+ & Gram−, Fungi”.

With “Gaegurin-1: peptide, source Wrinkled frog (SLFSLIKAGAKFLGKNLLKQGACYAACKASKQC; Gaegurin-1; listed as Rana rugosa)”, the Activity entry in experiment [3] is listed as “Gram+ & Gram−, Fungi”.

As for “SEQ ID No. 177: synthetic antifungal peptide, Table 1 (GYFSYPHGNLF; listed as Glomerella cingulata)”, in experiment [3], the Activity entry is listed as “Fungi”.

“Neutrophil defensin 2 (RMAD-2): peptide, source Rhesus macaque (ACYCRIPACLAGERRYGTCFYMGRVWAFCC; neutrophil defensin 2 (RMAD-2); listed as Macaca mulatta)”: the Activity entry in experiment [3] is given as “Gram+ & Gram−, Fungi”.

B1: NK-Lysin: peptide, source Sus scrofa (peptide, listed as Amaranthus caudatus)
chain: GYFCESCRKIIQKLEDMVGPQPNEDTVTQAASQVCDKLKILRGLCKKIMRSFLRRISWDILTGKKPQAICVDIKICKE
As to B1, the Activity result in experiment [3] was “Gram+ & Gram−, Fungi”.

B2: Holotricin 3: peptide, source Holotrichia diomphalia (peptide, listed as Holotrichia diomphalia)
chain: YGPGDGHGGGHGGGHGGGHGNGQGGGHGHGPGGGFGGGHGGGHGGGGRGGGGSGGGGSPGHGAGGGYPGGHGGGHHGGYQTHGY
modifications: Holotricin 3
notes: peptide, source Holotrichia diomphalia
Turning to B2, the Activity result in experiment [3] was “Fungi”.
